# US12383545B1, “Treatment of migraine” (priority 2018, dated 2025)
# How the values were obtained:
# [1] = test system: participants with episodic migraine; test: Study A: Migraine-Specific Quality of Life Questionnaire (MSQ v2.1) domain scores; assay type: in vivo, human; design: key to MSQ v2.1 Role Function Restrictive domain score, Week 12, mean (SD) / MSQ v2.1 Role Function Restrictive domain score, change from baseline, mean (SD) / MSQ v2.1 Role Function Restrictive domain score, MMRM LS mean change (SE): 0–100 scale, higher = better quality of life; details: for MSQ v2.1 Role Function Restrictive domain score, Week 12, mean (SD): mITT; for MSQ v2.1 Role Function Restrictive domain score, MMRM LS mean change (SE) / MSQ v2.1 Role Function Restrictive domain score, change from baseline, mean (SD): week 12, mITT; for MSQ v2.1 EF domain, improvement vs placebo / MSQ v2.1 RFP domain, improvement vs placebo: week 12
# Source text: The Migraine-Specific Quality of Life Questionnaire Version 2.1 is one of the most frequently utilized disease-specific tools assessing the impact of migraine on HRQL. The MSQ is a validated tool that assess the impact of migraine on function (i.e., daily social and work-related activities) over the past 4 weeks across three dimensions: Role Function-Restrictive (RR, or “RFR”, relating to how migraines limit the patient's daily social and work related activities), Role Function-Preventive (RP, e.g., how migraines prevent the patient's daily social and work related activities), and Emotional Function (EF, e.g., the emotions associated with a patient's migraines). Patients respond to items using a 6-point scale: “none of the time,” “a little bit of the time,” “some of the time”, “a good bit of the time,” “most of the time” and “all of the time,” which are assigned scores of 1 to 6, respectively. Raw dimension scores are computed as a sum of item responses and rescaled from a 0 to 100 scale such that higher scores indicate better quality of life. See Bagley et al., Validating Migraine-Specific Quality of Life Questionnaire v2.1 in Episodic and Chronic Migraine, Headache, 2012 March; 52 (3): 409-21.
# The primary efficacy endpoint was change from baseline in mean monthly migraine days across the 12-week treatment period. Secondary efficacy endpoints, tested in hierarchical order, were change from baseline in mean monthly headache days across the 12-week treatment period, change from baseline in mean monthly acute medication use days across the 12 week treatment period, ≥50% reduction in 3-month average of monthly migraine days, change from baseline in MSQ v 2.1 Role Function-Restrictive domain score at week 12, change from baseline in mean monthly Performance of Daily Activities domain score of the AIM-D across the 12-week treatment period, and change from baseline in mean monthly Physical Impairment domain score of the AIM-D across the 12-week treatment period. An exploratory analysis of the time course of efficacy for atogepant by 4-week intervals, based on the least square mean change from baseline for the number of monthly migraine days over the 12-week treatment period was also conducted.
# A secondary endpoint measured the change from baseline in MSQ v2.1 Role Function Restrictive Domain Score at Week 12. The Migraine-Specific Quality of Life Questionnaire Version 2.1 is one of the most frequently utilized disease-specific tools assessing the impact of migraine on HRQL. The MSQ measures the impact of migraine on the patient's HRQL over the past 4 weeks across three dimensions: Role Function-Restrictive (RR), Role Function-Preventive (RP), and Emotional Function (EF).
# ALT or AST = test: Study A: postbaseline hepatic laboratory parameters (ALT or AST, potential Hy's Law); assay type: in vivo, human; details: safety population; for ALT or AST >=1 * ULN, n/N1 (%) / ALT or AST >=1.5 * ULN, n/N1 (%) / ALT or AST >=2 * ULN, n/N1 (%) / ALT or AST >=5 * ULN, n/N1 (%) / ALT or AST >=10 * ULN, n/N1 (%) / ALT or AST >=20 * ULN, n/N1: postbaseline
# Procedure: Adverse events were reported by participants throughout the trial, and at a 4-week follow-up visit. Adverse event information was collected and documented during each clinic visit. Participants could also report adverse events via telephone call between visits. Causality of each adverse event was determined by the investigator who was blinded to the treatment. In addition, clinical laboratory tests, vital signs, electrocardiograms (ECG), and Columbia-Suicide Severity Rating Scale were evaluated. Based on the potential hepatotoxicity of prior gepants, treatment-emergent elevations in ALT or AST ≥3 times the upper limit of normal, as well as potential Hy's law cases, were evaluated as prespecified adverse events of special interest and were reviewed by an independent panel of liver experts blinded to treatment (see, e.g., Negro A et al., CGRP Receptor Antagonists: an expanding drug class for acute migraine? Expert Opin Investig Drugs 2012; 21:807-18; Messina R et al., CGRP—a target for acute therapy in migraine: Clinical Data. Cephalalgia 2019; 39:420-7).
# There were no hepatic safety issues identified in this trial. ALT and/or AST increases were low across all atogepant doses and occurred at a lower rate than placebo. […] No cases of liver disease were reported, and no case met the criteria for potential Hy's Law following daily dosing for 12 weeks.
# [2] = Atogepant oral pharmacokinetics; assay type: in vivo; details: administered orally
smiles,measurement,setting,value
C[C@@H]1[C@H](c2c(F)ccc(F)c2F)C[C@H](NC(=O)c2cnc3c(c2)C[C@@]2(C3)C(=O)Nc3ncccc32)C(=O)N1CC(F)(F)F [atogepant],"MSQ v2.1 RFR domain score, LSMD vs. placebo (95% CI)","[1]; 10 mg QD (symbol *), week 4, FIG. 11",8.6
same,"MSQ v2.1 RFR domain score, LSMD vs. placebo (95% CI)","[1]; 10 mg QD (symbol *), week 8, FIG. 11",11.3
same,"MSQ v2.1 RFR domain score, LSMD vs. placebo (95% CI)","[1]; 10 mg QD, Week 12",9.9
same,"MSQ v2.1 Role Function Restrictive domain score, Week 12, mean (SD)",[1]; 10 mg QD,75.6
same,"MSQ v2.1 RFR domain score, LSMD vs. placebo (95% CI)","[1]; 10 mg QD, week 12, listed as Atogepant",9.90
same,"MSQ v2.1 Role Function Restrictive domain score, MMRM LS mean change (SE)",[1]; 10 mg QD,30.35
same,"MSQ v2.1 Role Function Restrictive domain score, change from baseline, mean (SD)",[1]; 10 mg QD,30.8
same,"MSQ v2.1 EF domain, improvement vs placebo",[1]; 10 mg,8.3
same,"MSQ v2.1 RFP domain, improvement vs placebo",[1]; 10 mg,5.8
same,"MSQ v2.1 RFR domain score, LSMD vs. placebo (95% CI)","[1]; 30 mg QD (symbol †), week 4, FIG. 11",11.2
same,"MSQ v2.1 RFR domain score, LSMD vs. placebo (95% CI)","[1]; 30 mg QD (symbol †), week 8, FIG. 11",9.9
same,"MSQ v2.1 RFR domain score, LSMD vs. placebo (95% CI)","[1]; 30 mg QD, Week 12",10.1
same,"MSQ v2.1 Role Function Restrictive domain score, Week 12, mean (SD)",[1]; 30 mg QD,75.4
same,"MSQ v2.1 RFR domain score, LSMD vs. placebo (95% CI)","[1]; 30 mg QD, week 12, listed as Atogepant",10.08
same,"MSQ v2.1 Role Function Restrictive domain score, MMRM LS mean change (SE)",[1]; 30 mg QD,30.53
same,"MSQ v2.1 Role Function Restrictive domain score, change from baseline, mean (SD)",[1]; 30 mg QD,31.1
same,"MSQ v2.1 EF domain, improvement vs placebo",[1]; 30 mg,9.7
same,"MSQ v2.1 RFP domain, improvement vs placebo",[1]; 30 mg,6.9
same,"MSQ v2.1 RFR domain score, LSMD vs. placebo (95% CI)","[1]; 60 mg QD (symbol ‡), week 4, FIG. 11",12.3
same,"MSQ v2.1 RFR domain score, LSMD vs. placebo (95% CI)","[1]; 60 mg QD (symbol ‡), week 8, FIG. 11",10.8
same,"MSQ v2.1 RFR domain score, LSMD vs. placebo (95% CI)","[1]; 60 mg QD, Week 12",10.8
same,"MSQ v2.1 Role Function Restrictive domain score, Week 12, mean (SD)",[1]; 60 mg QD,78.0
same,"MSQ v2.1 RFR domain score, LSMD vs. placebo (95% CI)","[1]; 60 mg QD, week 12, listed as Atogepant",10.80
same,"MSQ v2.1 Role Function Restrictive domain score, MMRM LS mean change (SE)",[1]; 60 mg QD,31.25
same,"MSQ v2.1 Role Function Restrictive domain score, change from baseline, mean (SD)",[1]; 60 mg QD,30.5
same,"MSQ v2.1 EF domain, improvement vs placebo",[1]; 60 mg,10.5
same,"MSQ v2.1 RFP domain, improvement vs placebo",[1]; 60 mg,7.1
same,"ALT or AST >=1 * ULN, n/N1 (%)",ALT or AST; 10 mg QD,(8.6) %
same,"ALT or AST >=1.5 * ULN, n/N1 (%)",ALT or AST; 10 mg QD,(1.4) %
same,"ALT or AST >=2 * ULN, n/N1 (%)",ALT or AST; 10 mg QD,(0.9) %
same,"ALT or AST >=5 * ULN, n/N1 (%)",ALT or AST; 10 mg QD,(0.5) %
same,"ALT or AST >=10 * ULN, n/N1 (%)",ALT or AST; 10 mg QD,(0.5) %
same,"ALT or AST >=20 * ULN, n/N1",ALT or AST; 10 mg QD,0
same,"Potential Hy's Law (ALT or AST >= 3 * ULN AND Bilirubin Total >= 2 * ULN AND ALP < 2 * ULN), n/N1",ALT or AST; 10 mg QD,0
same,"ALT or AST >=1 * ULN, n/N1 (%)",ALT or AST; 30 mg QD,(8.0) %
same,"ALT or AST >=1.5 * ULN, n/N1 (%)",ALT or AST; 30 mg QD,(3.1) %
same,"ALT or AST >=2 * ULN, n/N1 (%)",ALT or AST; 30 mg QD,(0.9) %
same,"ALT or AST >=5 * ULN, n/N1 (%)",ALT or AST; 30 mg QD,(0.4) %
same,"ALT or AST >=10 * ULN, n/N1 (%)",ALT or AST; 30 mg QD,0%
same,"ALT or AST >=20 * ULN, n/N1",ALT or AST; 30 mg QD,0
same,"Potential Hy's Law (ALT or AST >= 3 * ULN AND Bilirubin Total >= 2 * ULN AND ALP < 2 * ULN), n/N1",ALT or AST; 30 mg QD,0
same,"ALT or AST >=1 * ULN, n/N1 (%)",ALT or AST; 60 mg QD,(12.3) %
same,"ALT or AST >=1.5 * ULN, n/N1 (%)",ALT or AST; 60 mg QD,(3.1) %
same,"ALT or AST >=2 * ULN, n/N1 (%)",ALT or AST; 60 mg QD,(1.8) %
same,"ALT or AST >=5 * ULN, n/N1 (%)",ALT or AST; 60 mg QD,(0.4) %
same,"ALT or AST >=10 * ULN, n/N1 (%)",ALT or AST; 60 mg QD,0%
same,"ALT or AST >=20 * ULN, n/N1",ALT or AST; 60 mg QD,0
same,"Potential Hy's Law (ALT or AST >= 3 * ULN AND Bilirubin Total >= 2 * ULN AND ALP < 2 * ULN), n/N1",ALT or AST; 60 mg QD,0
same,time to maximum plasma concentrations,[2],≤ 2 h
same,half-life,"[2]; plasma, po",~11 h
